For data set [1] the following is noted: cited from earlier work.
For data set [2] the following is noted: cited from earlier work. The source holds these as a separate data set.
Data set [3] can be described thus: NAC depletion under and without ultraviolet irradiation, HPLC with fluorescence detection (284 nm excitation, 333 nm fluorescence). The note with it: single compound.
The nature of data set [4]: NAL depletion under and without ultraviolet irradiation, HPLC with fluorescence detection (284 nm excitation, 333 nm fluorescence). The note with it: single compound.
A short description of data set [5]: Average score of NAC and NAL depletion and phototoxicity or photoallergy determination, fluorescence detection. The note with it: under light irradiation, single compound.
Data set [6] in a line: NAC depletion under and without ultraviolet irradiation, HPLC with UV detection (281 nm). The note with it: for NAC Depletion (%) without light irradiation: 25° C. 24 hours light-shielded; for NAC Depletion (%) without light irradiation / NAC Depletion (%) under light irradiation: test substance solution 1 mmol/L; for NAC Depletion (%) under light irradiation: 2,000 μW/cm^2 for 1 hour then 25° C. 23 hours.

Data set [7] in a line: NAL depletion under and without ultraviolet irradiation, HPLC with UV detection (281 nm). The note with it: for NAL Depletion (%) without light irradiation: 25° C. 24 hours light-shielded; for NAL Depletion (%) without light irradiation / NAL Depletion (%) under light irradiation: test substance solution 1 mmol/L; for NAL Depletion (%) under light irradiation: 2,000 μW/cm^2 for 1 hour then 25° C. 23 hours.

The structures appear in SMILES notation. Where a name gives a salt, the structure may show the parent alone. Read-outs that look alike come from different tables or passages of the source.

For the compound `COc1ccc2ccc(=O)oc2c1` [7-Methoxy coumarin], in data set [1] (literature classification), the In vivo photoallergy result is “Positive”.
As for `CN(C)CCCN1c2ccccc2Sc2ccc(Cl)cc21` [No. 1, Chlorpromazine HCl], the In vivo phototoxicity entry in data set [2] (literature classification) is “Positive”. Moreover, the In vivo photoallergy entry in data set [1] (literature classification) was “Positive”.
For the compound `Cc1ccc2oc(=O)ccc2c1` [No. 2, 6-Methylcoumarin], the In vivo phototoxicity entry in data set [2] (literature classification) is given as “Positive”. Further, in data set [1] (literature classification), the In vivo photoallergy result is “Positive”.
On to `O=C(c1ccccc1)c1ccccc1` [No. 4, Benzophenone], for which the In vivo photoallergy entry in data set [1] (in vivo) is “Positive”.
Consider `Oc1c(Cl)cc(Cl)cc1Sc1cc(Cl)cc(Cl)c1O` [No. 5, Bithionol], for which, in data set [2] (literature classification), the In vivo phototoxicity entry is reported as “Positive”. Further, the In vivo photoallergy result in data set [1] (literature classification) is “Positive”.
As to `CCn1cc(C(=O)O)c(=O)c2cc(F)c(N3CCNCC3)nc21` [No. 6, Enoxacin], the In vivo phototoxicity result in data set [2] (literature classification) is listed as “Positive”. In data set [1] (literature classification), the In vivo photoallergy result was “Positive”.
As to `CN1C(C(=O)Nc2ccccn2)=C(O)c2ccccc2S1(=O)=O` [No. 8, Piroxicam], in data set [2] (literature classification), the In vivo phototoxicity result is “Positive”. The In vivo photoallergy result in data set [1] (literature classification) was “Positive”.
On to `O=C(Nc1ccc(Br)cc1)c1cc(Br)cc(Br)c1O` [No. 10, Tribromsalan], for which the In vivo phototoxicity result in data set [2] (in vivo) is “Positive”. In data set [1] (in vivo), the In vivo photoallergy entry is “Positive”.
Turning to `Nc1ccc(N)cc1` [No. 11, p-Phenylenediamine], the In vivo photoallergy result in data set [1] (literature classification) was “Positive”.
In the case of `O=C([O-])Cc1ccccc1Nc1c(Cl)cccc1Cl.[Na+]` [No. 13, Diclofenac Na, reference compound], the In vivo photoallergy result in data set [1] (literature classification) is recorded as “Positive”. Besides, the “NAC Depletion (%)” value in data set [3] (under light irradiation) stood at 100.0%. In addition, the “NAL Depletion (%)” value in data set [4] (under light irradiation) is 0.0%.
For `CC(CN1c2ccccc2Sc2ccccc21)N(C)C` (centres unmarked) [No. 14, Promethazine HCl], the In vivo phototoxicity entry in data set [2] (literature classification) is reported as “Positive”. Moreover, the In vivo photoallergy entry in data set [1] (literature classification) was “Positive”.
For `C=C[C@H]1CN2CC[C@H]1C[C@H]2[C@H](O)c1ccnc2ccc(OC)cc12.Cl.O.O` [No. 15, Quinine HCl (2H2O), reference compound], in data set [3] (under light irradiation), the “NAC Depletion (%)” value is on record as 99.8%. For the same compound, the “NAL Depletion (%)” value in data set [4] (under light irradiation) was determined as 0.7%.
On to `COc1c(C(C)(C)C)cc([N+](=O)[O-])c(C)c1[N+](=O)[O-]` [No. 17, Musk ambrette], for which the In vivo phototoxicity entry in data set [2] (literature classification) was “Negative”. The In vivo photoallergy entry in data set [1] (literature classification) is “Positive”.
As to `O=C(Nc1ccc(Cl)cc1)Nc1ccc(Cl)c(Cl)c1` [No. 20, Triclocarban], in data set [2] (literature classification), the In vivo phototoxicity entry is reported as “Negative”. For the same compound, in data set [1] (literature classification), the In vivo photoallergy result is listed as “Positive”.
Consider `Oc1ccc(Cl)cc1Sc1cc(Cl)ccc1O` [No. 22, Fenticlor], for which, in data set [1] (literature classification), the In vivo photoallergy result is “Positive”.
Turning to `NS(=O)(=O)c1cc2c(cc1Cl)NCNS2(=O)=O` [No. 24, Hydrochlorothiazide], the In vivo photoallergy result in data set [1] (literature classification) is “Positive”.
Regarding `NNC(=O)c1ccncc1` [No. 25, Isoniazid], the In vivo photoallergy entry in data set [1] (literature classification) was “Positive”.
As to `[Na+].[O-]n1ccccc1=S` [No. 26, Omadine (Na salt)], in data set [1] (in vivo), the In vivo photoallergy result is “Positive”.
As for `Nc1ccc(S(N)(=O)=O)cc1` [No. 27, Sulfanilamide], in data set [1] (literature classification), the In vivo photoallergy result was “Positive”.
As for `CCOc1ccc2c(C)cc(=O)oc2c1` [No. 29, 4-Methyl-7-ethoxycoumarin], the In vivo photoallergy entry in data set [1] (literature classification) is on record as “Positive”.
On to `COc1c2ccoc2cc2oc(=O)ccc12` [No. 31, 5-Methoxypsoralen], for which the In vivo phototoxicity result in data set [2] (literature classification) was “Positive”. Moreover, the In vivo photoallergy entry in data set [1] (literature classification) is reported as “Negative”.
In the case of `CNc1ccccc1C(=O)OC` [No. 32, Methyl-N-methylanthranilate], the In vivo phototoxicity result in data set [2] (literature classification) is reported as “Positive”. In data set [1] (literature classification), the In vivo photoallergy result was “Negative”.
As for `CC(=O)c1c(C)c([N+](=O)[O-])c(C(C)(C)C)c([N+](=O)[O-])c1C` [No. 33, Musk ketone], the In vivo phototoxicity result in data set [2] (literature classification) is “Positive”. The In vivo photoallergy entry in data set [1] (literature classification) was “Negative”.
As for `c1ccc2nc3ccccc3cc2c1` [No. 34, Acridine], the In vivo phototoxicity result in data set [2] (literature classification) is recorded as “Positive”. For the same compound, in data set [1] (literature classification), the In vivo photoallergy entry is recorded as “Negative”.
In the case of `CN(C)[C@@H]1C(=O)C(C(N)=O)=C(O)[C@@]2(O)C(=O)C3=C(O)c4c(O)cccc4[C@@](C)(O)[C@H]3C[C@@H]12` [No. 36, Tetracycline, reference compound], in data set [1] (literature classification), the In vivo photoallergy entry is “Negative”. Besides, the “Average score (%)” value in data set [5] was determined as 64.3%. Moreover, the “NAC Depletion (%)” value in data set [3] (under light irradiation) is recorded as 100.0%. Moreover, the “NAL Depletion (%)” value in data set [4] (under light irradiation) was 28.6%.
Regarding `CC(C)OC(=O)C(C)(C)Oc1ccc(C(=O)c2ccc(Cl)cc2)cc1` [No. 38, Fenofibrate], the In vivo phototoxicity entry in data set [2] (literature classification) was “Positive”.
With `OCC(O)CO` [No. 51, Glycerine], the In vivo phototoxicity result in data set [2] (literature classification) was “Negative”.
For `CCCCCCCCCCCC(=O)[O-].[Na+]` [No. 55, Sodium laurate], in data set [1] (literature classification), the In vivo photoallergy result is on record as “Negative”.
Turning to `CC(O)C(=O)O` (centres unmarked) [No. 59, Lactic acid], the In vivo photoallergy entry in data set [1] (literature classification) is given as “Negative”.
On to `O=C([O-])Cc1ccccc1Nc1c(Cl)cccc1Cl.[Na+]` [compound 13], for which, in data set [1] (reported in References 1 and 2), the In vivo photoallergy entry is given as “Positive”. For the same compound, in data set [6], the “Difference in depletion (under light irradiation - without light irradiation) NAC (%)” value was found to be 99.4%, the “NAC Depletion (%) without light irradiation” value stood at 0.6% and the “NAC Depletion (%) under light irradiation” value was determined as 100.0%. Further, in data set [7], the “NAL Depletion (%) without light irradiation” value was determined as 0.0% and the “NAL Depletion (%) under light irradiation” value is reported as −4.1%. For the same compound, the “Difference in depletion (under light irradiation - without light irradiation) NAC (%)” value in data set [3] is given as 100.0%. Moreover, the “NAC Depletion (%)” value in data set [3] (without light irradiation) is listed as 0.0%. Also, the “Difference in depletion (under light irradiation - without light irradiation) NAL (%)” value in data set [4] stood at 0.0%. The “NAL Depletion (%)” value in data set [4] (without light irradiation) turned out to be 0.0%.
`C=CC1CN2CCC1CC2C(O)c1ccnc2ccc(OC)cc12.Cl.O.O` (centres unmarked) [compound 15]: in data set [6], the “Difference in depletion (under light irradiation - without light irradiation) NAC (%)” value was 98.9%, the “NAC Depletion (%) without light irradiation” value is on record as 1.1% and the “NAC Depletion (%) under light irradiation” value amounted to 100.0%. In data set [7], the “Difference in depletion (under light irradiation - without light irradiation) NAL (%)” value came to 4.1%, the “NAL Depletion (%) without light irradiation” value stood at 0.0% and the “NAL Depletion (%) under light irradiation” value was determined as 4.1%. Besides, the “Difference in depletion (under light irradiation - without light irradiation) NAC (%)” value in data set [3] amounted to 98.8%. For the same compound, the “NAC Depletion (%)” value in data set [3] (without light irradiation) is listed as 1.0%. Further, the “Difference in depletion (under light irradiation - without light irradiation) NAL (%)” value in data set [4] amounted to 0.7%. For the same compound, the “NAL Depletion (%)” value in data set [4] (without light irradiation) came out at 0.0%.
Regarding `COc1ccc2ccc(=O)oc2c1` [compound 30, 7-Methoxycoumarin], the In vivo photoallergy result in data set [1] (reported in References 1 and 2) is recorded as “Positive”.
For `CN(C)C1C(O)=C(C(N)=O)C(=O)C2(O)C(O)=C3C(=O)c4c(O)cccc4C(C)(O)C3CC12` (centres unmarked) [compound 36], in data set [1] (reported in References 1 and 2), the In vivo photoallergy entry was “Negative”. Also, in data set [6], the “NAC Depletion (%) without light irradiation” value is listed as −59.4% and the “NAC Depletion (%) under light irradiation” value was found to be 44.6%. For the same compound, in data set [7], the “Difference in depletion (under light irradiation - without light irradiation) NAL (%)” value is given as 22.5%, the “NAL Depletion (%) without light irradiation” value was 5.1% and the “NAL Depletion (%) under light irradiation” value is listed as 27.6%. For the same compound, the “Difference in depletion (under light irradiation - without light irradiation) NAC (%)” value in data set [3] was determined as 43.4%. For the same compound, the “NAC Depletion (%)” value in data set [3] (without light irradiation) is on record as 56.6%. Moreover, the “Difference in depletion (under light irradiation - without light irradiation) NAL (%)” value in data set [4] stood at 25.6%. The “NAL Depletion (%)” value in data set [4] (without light irradiation) stood at 3.0%.
Consider `CCCCCCCCCCCCOS(=O)(=O)[O-].[Na+]` [compound 56, Sodium lauryl sulfate], for which the In vivo phototoxicity entry in data set [2] (in vivo) is recorded as “Negative”.
